Test results as given in ChEMBL document CHEMBL1144379, “The development of monocyclic pyrazolone based cytokine synthesis inhibitors” (Bioorg Med Chem Lett, 2005).
Values after ≈ are worked out from the molar mass of the structure shown.

Experiments:
THP-1 = assay: Inhibitory activity against lipopolysaccharide stimulated TNF-alpha production in THP-1 cells (human monocytic cells); assay type: functional, cell-based
[1] = Half life in rats; assay type: ADME; details: rat, in vivo
[2] = Aqueous solubility […]; assay type: physicochemical, Rattus norvegicus; details: aqueous medium
[3] = Metabolism measured as percent loss at 4 hours in rat hepatocytes; assay type: ADME, cell-based, Hepatocyte; details: read-out: Metabolism
[4] = Bioavailability in rat; assay type: ADME, organism-based; details: in vivo
[5] = Inhibition of Mitogen-activated protein kinase p38 alpha

## C[C@H](Nc1nccc(-c2c(-c3ccc(F)cc3)c(=O)n(C3CCN(C)CC3)n2C)n1)c1ccccc1
THP-1
  IC50: 15 nM

## C[C@H](Nc1nccc(-c2c(-c3ccc(F)cc3)c(=O)n(C)n2C)n1)C(C)(C)O
THP-1
  IC50: 3970 nM

## COC[C@H](C)Nc1nccc(-c2c(-c3ccc(F)cc3)c(=O)n(C3CCNCC3)n2C)n1
THP-1
  IC50: 261 nM

## COC[C@@H](C)Nc1nccc(-c2c(-c3ccc(F)cc3)c(=O)n(C)n2C2CCNCC2)n1.O=C(O)C(F)(F)F
[1]
  half-life: 2.2 h
[2]
  solubility: > 30000 µg/mL
THP-1
  IC50: 75 nM
[3]
  metabolised at 4 h: 0%
[4]
  bioavailability: 15%

## C[C@H](Nc1nccc(-c2c(-c3ccc(F)cc3)c(=O)n(C)n2C)n1)c1ccccc1
[1]
  half-life: 1.1 h
[2]
  solubility: 123 µg/mL (≈ 305 µM)
THP-1
  IC50: 13 nM
[3]
  metabolised at 4 h: 44%
[4]
  bioavailability: 32%

## CC[C@H](C)Nc1nccc(-c2c(-c3ccc(F)cc3)c(=O)n(C)n2C)n1
THP-1
  IC50: 41 nM

## COCCn1c(-c2ccnc(N[C@@H](C)c3ccccc3)n2)c(-c2ccc(F)cc2)c(=O)n1C
[2]
  solubility: 429 µg/mL (≈ 959 µM)
THP-1
  IC50: 309 nM
[3]
  metabolised at 4 h: 30%

## C[C@H](Nc1nccc(-c2c(-c3ccc(F)cc3)c(=O)n(C)n2C)n1)c1cccnc1
THP-1
  IC50: 647 nM

## C[C@H](Nc1nccc(-c2c(-c3ccc(F)cc3)c(=O)n(C)n2C)n1)c1ccncc1
THP-1
  IC50: > 5000 nM

## COCCn1c(-c2ccnc(N[C@H](C)COC)n2)c(-c2ccc(F)cc2)c(=O)n1C
THP-1
  IC50: 924 nM

## C[C@H](Nc1nccc(-c2c(-c3ccc(F)cc3)c(=O)n(C3CCNCC3)n2C)n1)C(C)(C)O
THP-1
  IC50: 1080 nM

## C[C@H](Nc1nccc(-c2c(-c3ccc(F)cc3)c(=O)n(C)n2C2CCNCC2)n1)c1ccccc1
THP-1
  IC50: 155 nM

## Cn1c(-c2ccnc(Oc3ccccc3)n2)c(-c2ccc(F)cc2)c(=O)n1C
THP-1
  IC50: 288 nM

## COC[C@H](C)Nc1nccc(-c2c(-c3ccc(F)cc3)c(=O)n(C)n2C)n1
THP-1
  IC50: 1430 nM

## C[C@H](Nc1nccc(-c2c(-c3ccc(F)cc3)c(=O)n(C)n2C)n1)c1ccccn1
THP-1
  IC50: 1430 nM

## C[C@H](Nc1nccc(-c2c(-c3ccc(F)cc3)c(=O)n(C3CCNCC3)n2C)n1)c1ccccc1.O=C(O)C(F)(F)F
[1]
  half-life: 3.2 h
[2]
  solubility: 650 µg/mL
THP-1
  IC50: 32 nM
[3]
  metabolised at 4 h: 32%
[4]
  bioavailability: 17%

## COCCn1c(-c2ccnc(Oc3ccccc3)n2)c(-c2ccc(F)cc2)c(=O)n1C
THP-1
  IC50: 1430 nM

## CC(=O)N1CCC(n2c(=O)c(-c3ccc(F)cc3)c(-c3ccnc(N[C@@H](C)c4ccccc4)n3)n2C)CC1
THP-1
  IC50: 14 nM

## CCn1c(-c2ccnc(N[C@@H](C)c3ccccc3)n2)c(-c2ccc(F)cc2)c(=O)n1CC
THP-1
  IC50: 120 nM

## O=c1c(-c2ccc(F)cc2)c(-c2ccncc2)[nH]n1-c1ccc(Cl)cc1
THP-1
  IC50: 4220 nM

## Cn1c(=O)c(-c2ccc(F)cc2)c(-c2ccnc(Oc3ccccc3)n2)n1C1CCNCC1
THP-1
  IC50: 2650 nM

## Cn1c(-c2ccnc(Oc3ccccc3)n2)c(-c2ccc(F)cc2)c(=O)n1C1CCNCC1
THP-1
  IC50: 1810 nM

## CCOCn1nc(-c2ccncc2)c(-c2ccc(F)cc2)n1
[5]
  IC50: 2430 nM
THP-1
  IC50: 1070 nM
